According to PMC5371824, “Phosphatidylinositol (4,5)-bisphosphate dynamically regulates the K2P background K^+ channel TASK-2” (Scientific Reports, 2017):
Substitutions are numbered along the chain they refer to. Entries after “also recorded” stand apart in the source; their conditions may differ.

Legend:
TASK-2 [1] = biological target: T1, TASK-2 (Mus musculus, UniProt F6V9U5); test: Excised inside-out patch recording from HEK-293 cells over-expressing TASK-2; format: biochemical; conditions: for Stimulating effect on TASK-2-mediated currents after run-down: diC8 PIP added to inside-out excised patches; for Maximal fold effect on TASK-2 current (normalised to current in absence of PIP) / EC50: -60 mV, from fits, means ± SEM; for EC50: read-out: K0.5 (EC50) for activation of TASK-2 current
T1 construct: expressed in transfected cells; host or cells: HEK-293
T1 sequence (F6V9U5 1-502): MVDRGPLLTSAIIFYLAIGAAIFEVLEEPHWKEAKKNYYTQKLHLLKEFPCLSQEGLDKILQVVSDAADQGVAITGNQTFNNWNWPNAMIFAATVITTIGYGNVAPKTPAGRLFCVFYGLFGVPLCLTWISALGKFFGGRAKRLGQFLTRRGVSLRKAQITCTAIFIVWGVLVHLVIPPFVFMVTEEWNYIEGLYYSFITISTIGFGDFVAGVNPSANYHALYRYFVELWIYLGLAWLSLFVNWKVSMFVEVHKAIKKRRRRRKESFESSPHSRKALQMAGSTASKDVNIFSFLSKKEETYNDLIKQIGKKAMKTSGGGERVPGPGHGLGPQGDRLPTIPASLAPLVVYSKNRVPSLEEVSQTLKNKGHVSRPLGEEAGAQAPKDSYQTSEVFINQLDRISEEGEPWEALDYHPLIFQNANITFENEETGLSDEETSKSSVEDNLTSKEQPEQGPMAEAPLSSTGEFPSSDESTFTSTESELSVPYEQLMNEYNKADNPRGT

TASK-2 [2] = biological target: T1, TASK-2; test: Whole-cell patch-clamp of HEK-293 cells expressing TASK-2; format: cell-based; conditions: whole-cell, pipette solution with non-hydrolysable analogue, 0 mV
Description: (§1) Mus musculus TASK-2 (GenBank accession No. AF319542) plasmid was that obtained from mouse kidney. The cDNAs was subcloned into the pCR3.1 vector. Mutations were made by site-directed mutagenesis into the pCR3.1 vector as previously described[69] and confirmed by sequencing. HEK-293 cells were cultured in Dulbecco’s modified Eagle’s medium (DMEM) and F12 Ham’s medium at a 1:1 ratio and supplemented with 10% fetal calf serum at 37 °C in 5% CO2. For electrophysiological experiments, transient transfections were performed by electroporation, using CD8 cotransfection to identify effectively transfected cells. […] Experiments were performed 4–8 h after electroporation. In experiments with the voltage-sensitive phosphatase TASK-2 or its mutants were co-electroporated with a pCR3.1-DrVSP-IRES-CD8 vector.
Transiently transfected HEK-293 cells in 35 mm Petri dishes were transferred to the stage of an inverted microscope for study. There they were continuously superfused with a bathing solution containing (in mM): 67.5 Na2SO4, 4 KCl, 1 K gluconate, 2 CaCl2, 1 MgCl2, 105 sucrose, and 10 Hepes/Tris (pH 7.5) (standard solution). A high K^+ solution was obtained by equimolar replacement of Na^+ by K^+. The pipette solution contained (mM) 8 KCl, 132 potassium gluconate, 1 MgCl2, 10 EGTA, 1 Na3ATP, 0.1 GTP, 10 HEPES/Tris, pH 7.4. Standard whole-cell, patch-clamp recordings were performed as described elsewhere. All our whole-cell experiments keep both intra- and extracellular chloride at 10 mM and although currents were measured at several potentials, data mostly reported are those obtained at 0 mV. Potentials were corrected for liquid junction shifts. Acquisition and analysis was done with Clampfit 9.0 (Axon Instruments, Foster City, CA, USA). Further data analysis was done using the curve fitting features of SigmaPlot v. 12 (Systat Software Inc., San Jose, CA, USA).

TASK-2-K297C = biological target: T2, TASK-2-K297C (Mus musculus, UniProt F6V9U5, K297C); test: Excised inside-out patch recording, TASK-2-K297C mutant; format: biochemical; conditions: 2 mM reducing agent, inside-out patch
T2 construct: expressed in transfected cells; host or cells: HEK-293
T2 sequence (F6V9U5 1-502 K297C): T1 sequence (F6V9U5 1-502) with K297C
Description: Figure 6 Scanning of potential sites of interaction of TASK-2 with PI(4,5)P2 by cysteine mutagenesis of intracellular basic residues. (A) Schematic representation of TASK-2 topology showing the sequences of segments of the protein predicted to be intracellular or intracellular-facing. Basic residues are highlighted in red. (B) Recording from an excised inside-out patch of membrane taken from a HEK-293 cell over-expressing TASK-2. The patch was held at −60 mV in the presence of 1 mM ATP. At the intervals indicated by the boxes the intracellular aspect of the membrane was exposed to 300 μM Neomycin and then to 100 μM TPeA. At the end of the TPeA period the patch was additionally exposed to 1 mM MTSET as shown by the black box. (C and D) experiments as in (B), but with inside-out membrane patches obtained from cells expressing the mutants TASK-2-H327C and TASK-2-K297C respectively. In D the reducing agent DTT was also added at 2 mM. (E) Summary of experiments comparing the current before and after treatment with MTSET.
as §1, with “In experiments with the voltage-sensitive phosphatase TASK-2 or its mutants were co-electroporated with a pCR3.1-DrVSP-IRES-CD8 vector.” left out
Recordings in the inside-out isolated patch configuration were performed in the gap-free mode at −60 mV. […] Traces shown are prints from crude Clampfit screen shots and quantification was done using the average currents were calculated at intervals using Clampfit after baseline adjustment.

[3] = diC8 PIP, inside-out patch, absence of ATP

Compound	Stimulating effect on TASK-2-mediated currents after run-down (TASK-2 [1]; absence of ATP)	Maximal fold effect on TASK-2 current (normalised to current in absence of PIP) (TASK-2 [1]; [3])	EC50 (TASK-2 [1]; [3])	other results
CCCCCCCC(=O)OC[C@H](COP(=O)(O)O[C@H]1[C@H](O)[C@@H](OP(=O)(O)O)[C@H](OP(=O)(O)O)[C@@H](OP(=O)(O)O)[C@H]1O)OC(=O)CCCCCCC [PI(3,4,5)P3, phosphatidylinositol 3,4,5-trisphosphate diC8]	Largest effect; also recorded: most potent effect	11.6 ± 1.6 fold	29.8 ± 10.2 µM	–
Nc1ncnc2c1ncn2[C@@H]1O[C@H](CO[P@](=O)(O)O[P@](=O)(O)O[P@@](=O)(O)S)[C@@H](O)[C@H]1O [ATP-γ-S, adenosine-5′-(γ-thio)-triphosphate]	–	–	–	Ability to support TASK-2-mediated current in place of ATP (TASK-2 [2]): unable to support the TASK-2-mediated current
poly-lysine	–	–	–	Inhibition of TASK-2 activity by polycation PI scavengers (TASK-2 [1]; in the presence of intracellular ATP): inhibit TASK-2 activity
O[C@@H](CS)[C@@H](O)CS (racemic) [DTT, dithiothreitol]	–	–	–	Reversal of MTSET inhibition of WT TASK-2 (TASK-2 [1]; 2 mM reducing agent, inside-out patch, Fig. S4): reversibility of the effect; Reversal of the MTSET effect on TASK-2-K297C (TASK-2-K297C): reversed, at least partially
CCCCCCCC(=O)OC[C@H](COP(=O)(O)O[C@H]1[C@H](O)[C@@H](O)[C@H](OP(=O)(O)O)[C@@H](OP(=O)(O)O)[C@H]1O)OC(=O)CCCCCCC [PI(3,4)P2, phosphatidylinositol 3,4-bisphosphate diC8]	Robust, but intermediate effects	4.3 ± 0.4 fold	48.4 ± 4.6 µM	Effect of readmitted ATP relative to the maximal effect elicited by the PIP (TASK-2 [1]; 1 mM ATP added after PIP, inside-out patches, Fig. S3): 1.4 fold; Hill coefficient nH of dose response curve (TASK-2 [1]; [3]): 2
